According to patent publication US10597390B2, “Indoles for use in influenza virus infection” (Janssen Sciences Ireland UC, priority 2014, dated 2020):

How the values were obtained:
[1] = system: influenza virus A/Taiwan/1/86 (H1N1); assay: organism not typed; assay type: cell-based; conditions: MDCK, 72 h, CPE in MDCK cells, three days post-virus exposure, ATPlite
[2] = in vitro; conditions: dog, TOX MDCK CC50

Row | Compound | IC50 [1] [nM] | melting point [°C] | CC50 at 3 days [2] [nM]
1 | N#Cc1cc(F)c(N[C@@H]2CCC[C@H](NC(=O)[C@@H](O)c3ccccc3)C2)nc1-c1c[nH]c2c(F)cc(F)cc12 [Compound 214] | 670 | 255 | 2900
2 | Cn1nnc(C(=O)N[C@@H]2CCC[C@H](Nc3nc(-c4c[nH]c5c(F)cc(Cl)cc45)ncc3F)C2)n1 [Compound 74] | 19 | 259.7 | > 25000
3 | O=C(N[C@@H]1CCC[C@H](Nc2nc(-c3c[nH]c4c(F)cc(Cl)cc34)ncc2F)C1)c1cnn[nH]1 [Compound 42] | 0.5 | 280.1 | 3100
4 | COC(C)(C)C(CC(=O)O)Nc1nc(-c2c[nH]c3c(F)cc(F)cc23)c(C#N)cc1F (stereo not drawn) [Compound 240, 3-((5-cyano-6-(5,7-difluoro-1H-indol-3-yl)-3-fluoropyridin-2-yl)amino)-4-methoxy-4-methylpentanoic Acid] | 47 | 218.8 | 900
5 | CC(C)(C)[C@H](CC(=O)O)Nc1nc(-c2c[nH]c3c(F)cc(F)cc23)c(C#N)cc1F [Compound 218] | 3 | > 280 | 240
6 | Cn1ccc(C(C)(C)C(CC(=O)O)Nc2nc(-c3c[nH]c4c(F)cc(F)cc34)c(C#N)cc2F)n1 (stereo not drawn) [Compound 236] | 86 | 246.9 | 1500
7 | Cn1cc(C(=O)N[C@@H]2CCC[C@H](Nc3nc(-c4c[nH]c5c(F)cc(F)cc45)ncc3F)C2)nn1 [Compound 130] | 32 | > 300 | 3200
8 | O=C(N[C@@H]1CCC[C@H](Nc2nc(-c3c[nH]c4c(F)cc(Cl)cc34)ncc2F)C1)c1ncc(F)cc1F [Compound 55] | 25 | > 300 | 6600
9 | Cn1cc(Br)nc1C(=O)N[C@@H]1CCC[C@H](Nc2nc(-c3c[nH]c4c(F)cc(F)cc34)ncc2F)C1 [Compound 128] | 10 | 176 | 5900
10 | Nc1n[nH]cc1C(=O)N[C@@H]1CCC[C@H](Nc2nc(-c3c[nH]c4c(F)cc(F)cc34)ncc2F)C1 [Compound 146] | 1 | 169.7 | 10700
11 | Cc1cc(F)c2[nH]cc(-c3ncc(F)c(N[C@@H]4CCC[C@@H](NC(=O)c5nc(C)oc5C)C4)n3)c2c1 (racemic) [Compound 199] | 46 | 170 | 13000
12 | C=CCC(C)(C)[C@@H](CC(=O)O)Nc1nc(-c2c[nH]c3c(F)cc(C)cc23)ncc1F [Compound 243] | 46 | < 280 | 600
13 | CC(=O)NCc1cc(F)c(N[C@@H]2CCC[C@H](NC(=O)N3CCCC3)C2)nc1-c1c[nH]c2c(F)cc(F)cc12 [Compound 248] | 50 | < 260 | > 25000
14 | Cc1cc(F)c2[nH]cc(-c3ncc(F)c(N[C@H]4C5CCC(CC5)[C@@H]4C(=O)O)n3)c2c1 [Compound 166] | 6 | 98 | 1000
15 | O=C(N[C@@H]1CCC[C@H](Nc2nc(-c3c[nH]c4c(F)cc(F)cc34)ncc2F)C1)c1cc[nH]n1 [Compound 126] | 2 | > 300 | 10000
16 | O=C(N[C@@H]1CCC[C@H](Nc2nc(-c3c[nH]c4c(F)cc(F)cc34)ncc2F)C1)[C@H]1CCCN1 [Compound 148] | 600 | 220.8 | 10300

Row | Compound | IC50 [1] [nM] | melting point [°C] | CC50 at 3 days [2] [nM]
17 | O=C(N[C@@H]1CCC[C@H](Nc2nc(-c3c[nH]c4c(F)cc(F)cc34)ncc2F)C1)c1c[nH]cn1 [Compound 142] | 2 | 219.9 | 10000
18 | Cn1cc(Br)nc1C(=O)N[C@@H]1CCC[C@H](Nc2nc(-c3c[nH]c4c(F)cc(Cl)cc34)ncc2F)C1 [Compound 57] | 10 | 214.9 | 5000
19 | Cn1nc(C(=O)N[C@@H]2CCC[C@H](Nc3nc(-c4c[nH]c5c(F)cc(F)cc45)ncc3F)C2)cc1N [Compound 149] | 2 | 253.4 | 10000
20 | Cc1ocnc1C(=O)N[C@@H]1CCC[C@H](Nc2nc(-c3c[nH]c4c(F)cc(F)cc34)ncc2F)C1 [Compound 132] | 2 | 266.7 | 11400
21 | Cc1cnc(C(=O)N[C@@H]2CCC[C@H](Nc3nc(-c4c[nH]c5c(F)cc(F)cc45)ncc3F)C2)cn1 [Compound 103] | 49 | 215 | 6600
22 | Cc1cc(F)c2[nH]cc(-c3nc(N[C@@H]4CCC[C@@H](NC(=O)c5cncs5)C4)c(F)cc3C#N)c2c1 (racemic) [Compound 201] | 10 | > 250 | > 21800
23 | Nc1cccc(C(=O)N[C@@H]2CCC[C@H](Nc3nc(-c4c[nH]c5c(F)cc(F)cc45)ncc3F)C2)n1 [Compound 106] | 5 | 190 | 10300
24 | CC(C)(c1cccs1)C(CC(=O)O)Nc1nc(-c2c[nH]c3c(F)cc(F)cc23)c(C#N)cc1F (stereo not drawn) [Compound 229, 3-((5-cyano-6-(5,7-difluoro-1H-indol-3-yl)-3-fluoropyridin-2-yl)amino)-4-methyl-4-(thiophen-2-yl)pentanoic Acid] | 18 | 235.7 | 200
25 | Cc1cccnc1C(=O)N[C@@H]1CCC[C@H](Nc2nc(-c3c[nH]c4c(F)cc(F)cc34)ncc2F)C1 [Compound 101] | 10 | 236 | > 20700
26 | Nc1cc(C(=O)N[C@@H]2CCC[C@H](Nc3nc(-c4c[nH]c5c(F)cc(F)cc45)ncc3F)C2)ncn1 [Compound 124] | 7 | 228 | 11400
27 | COc1cccc(C(=O)N[C@@H]2CCC[C@H](Nc3nc(-c4c[nH]c5c(F)cc(Cl)cc45)ncc3F)C2)n1 [Compound 31] | 47 | 256.7 | 19900
28 | Cc1cn(C)nc1C(=O)N[C@@H]1CCC[C@H](Nc2nc(-c3c[nH]c4c(F)cc(F)cc34)ncc2F)C1 [Compound 136] | 3 | 265.1 | 7600
29 | N#Cc1cc(F)c(N[C@H]2CCC[C@@H](NC(=O)c3ncccc3F)C2)nc1-c1c[nH]c2c(F)cc(F)cc12 (racemic) [Compound 212] | 10 | 289 | > 25000
30 | Cn1ncc(C(=O)N[C@@H]2CCC[C@H](Nc3nc(-c4c[nH]c5c(F)cc(F)cc45)ncc3F)C2)c1N [Compound 156] | 0.8 | 248.7 | 8500
31 | Cc1cc(C(=O)N[C@@H]2CCC[C@H](Nc3nc(-c4c[nH]c5c(F)cc(F)cc45)ncc3F)C2)n(C)n1 [Compound 116] | 12 | 279 | 5800
32 | Nc1cc(C(=O)N[C@@H]2CCC[C@H](Nc3nc(-c4c[nH]c5c(F)cc(Cl)cc45)ncc3F)C2)n[nH]1 [Compound 59] | 2 | 245.2 | 7800
